Experimental data as given in patent US20120022142A1, “RNA Interference Mediated Inhibition of Signal Transducer and Activator of Transcription 1 (STAT1) Gene Expression Using Short Interfering Nucleic Acid (siNA)” (Merck Sharp & Dohme Corp., priority 2009, published 2012).
[invAb] = inverted abasic unit; m = 2'-O-methyl; r = 2'-OH (RNA); f = 2'-fluoro

Experiments:
STAT1 protein = test: STAT1 Western Blot in transfected A549 cells; type: cell-based, human; conditions: % protein remaining (STAT1α and STAT1β together), A549, 30 nM; for Protein 24 hr: 24 hr post-transfection; for Protein 48 hr: 48 hr post-transfection; for Protein 72 hr: 72 hr post-transfection
Experimental: A549 cells were plated in 6-well plates at final counts of 70,000 cells/well in 2 ml of complete growth media (Ham's F12, Cellgro Cat# 10-080-CV+10% FBS). Transfection was performed using 2.5 uL of RNAiMax (Invitrogen Cat# 13778-150) per well. Final concentration of siNAs was 30, 3, 0.3, 0.03, 0.003, and 0.0003 nM done in duplicate. The siNAs were incubated for 24-72 hours. The duplicate samples were pooled to prepare protein lysates and RNA using the “PARIS” Protein and RNA Isolation System from Ambion, Cat# 1921. The total protein in the lysates was measured using a Bradford Dye Reagent (Bio-Rad, Cat# 500-0205).SDS-PAGE/Western Blotting was performed on the on the protein samples and RT-PCR on the RNA samples.
The protein source for the Western Blot experiments were from transfection of A549 cells in a 6 well plate, as described above.
Protein samples were diluted 1:1 in 2× Laemmli buffer with 5% β-mercapto-ethanol and incubated at 95° C. for 5 minutes. 10 ug of protein was loaded in each lane of 7.5% Tris-HCl gel. One lane was designated for MagicMark Protein Standard (Invitrogen # LC5602). Another lane was designated for a Precision Plus Protein Standard (Bio-Rad, Cat# 161-0374). The gel was run at 100V for approximately 2 hours. Protein was transferred to a PVDF membrane at 100V for 60 minutes. Once the transfer was finished, the membrane was blocked in 1% Casein in PBS (BioRad Cat#161-0783) for 1 hour on a plate rocker at room temperature followed by the overnight incubation at 4° C. with STAT1 primary antibody (Clontech, Cat# 610185) diluted 1:500 in 1% Casein in PBS. On the next day, the blot was washed 4×5 minutes in PBST (0.1% Tween-20 in PBS) solution and incubated for 30 minutes at room temperature with goat anti-mouse secondary antibody (Pierce Cat #3 31430) diluted 1:20,000 in 1% Casein in PBS. Then, the blot was washed 4×5 minutes with PBST, rinsed with PBS, and incubated for 1 minute with ECL Western Blotting Substrate (Pierce Biotechnology, Cat# 32106). The bands were visualized on the Bio-Rad VersaDoc Imager.
The level of protein was quantified using the Bio-Rad VersaDoc Imager according to the protocols of that piece of equipment. A pixel count was performed in each lane using an area of identical size. Each sample was then compared to the appropriate control treated sample and converted to a percent of protein remaining compared to control.
An assessment of the level of mRNA at each timepoint was also made and protein samples from the treated cells were used in Western blots with an α-STAT1 antibody. (Clontech, Cat# 610185) and anti-Tubulin Ab (Sigma # T6199) in human A549 cells. Cells were transfected 24, 48 or 72 hours before harvesting total protein and the final concentration of siNAs was 30 nM. Lanes were loaded with 10 ug of total protein. Quantification was done of both the STAT1α and the STAT1β proteins together. All the siNAs tested reduced STAT1 protein at each of the tested timepoints, with the highest degree of protein reduction being observed at 72 hours post-transfection.

STAT1 mRNA = test: Stat1 mRNA knockdown and EC50 in human bronchial epithelial cells (NHBE); type: cell-based; conditions: 48 hours post transfection, mean of 3 donors; for EC50: Stat1 mRNA knockdown; for Maximum mRNA Knockdown: Stat1 mRNA
Experimental: Human Bronchial Epithelial cells (NHBE cells) obtained from Lonza (Cat. No. CC-2540) were grown at 37 degrees in the presence of 5% CO2 and cultured in BEBM basal medium (Lonza, Cat. No. CC-3171) on Biocoat Collagen1 coated flasks (Becton Dickinson).
Cells were plated in collagen 1 coated plates and cultured in appropriate culture media. The cells were cultured for 24 hours after plating at 37 deg in the presence of 5% CO2. siNAs were diluted in OptiMEM 1 to 1 uM and the transfection agent to 25 ug/ml. For formulation of the siNAs equal volumes of the diluted siNA and delivery lipid were combined and incubated for 20 minutes at room temperature. Cells were meanwhile trypsinised and resuspended in antibiotic free BEBM media at 150,000 cells/ml. 20 ul of the formulated siNA and 80 ul of BEBM media was added per well of a 96 well plate (6 replicates/data point/siNA concentration) so as to give a nine point dose range of the siNAs (100 nM, 30 nM, 10 nM, 3 nM, 1 nM, 0.3 nM, 0.1 nM, 0.03 nM, 0.01 nM). The time of incubation with the transfection agent-siNA complexes were 48 hours with one change of media at 24 hours.
Total RNA was isolated from the cells in the 96-well plate format using the Automated SV96 Total RNA Isolation System (Promega) according to the manufacturer's instructions. The Biomek 2000 Laboratory Automation Workstation (Beckman Coulter) was used to apply the transfected cell lysates to a silica membrane. RNase-Free DNase I was then applied directly to the silica membrane to digest contaminating genomic DNA. The bound total RNA was further purified from contaminating salts, proteins and cellular impurities by simple washing steps. Finally, total RNA was eluted from the membrane by the addition of Nuclease-Free Water.
A series of probes and primers were used for the detection of mRNA transcripts of STAT1, OAS1, and GAPDH (as control/normalisation) in the human cell lines. The assays were performed on an ABI 7900HT instrument according to the manufacturer's instructions.
With TaqMan data, critical threshold values (Ct) were converted to copy numbers corresponding to the particular gene analysed in each well of the 384 well plate. Six identical wells were prepared in each plate for a given treatment. […] Determination of the percentage coefficient of variation (CV) (% C.V.=[standard deviation/average]*100) allowed the omitting of wells whose value was an outlier (so that % C.V.<25). Relative abundance (aka relative expression) of a gene was determined by dividing the mean copy number of that gene with its GAPDH counterpart in that particular sample.
EC50 values were calculated from the data using sigma plot. All calculations of the efficacy and potency of the siNAs were done relative to the non-targeting control siNA.

| Substance | Protein 24 hr (STAT1 protein) [%] | Protein 48 hr (STAT1 protein) [%] | Protein 72 hr (STAT1 protein) [%] | EC50 (STAT1 mRNA) [nM] | Maximum mRNA Knockdown (STAT1 mRNA) [%] |
| --- | --- | --- | --- | --- | --- |
| 25351-DC: STAT1 siNA duplex, human target site 2249; modified strands SEQ ID NO: 39 and 40 (chain 1 CCUACACGAAGAAAGAACUTT; chain 2 AGUUCUUUCUUCGUGUAGGUU; chain 1: DNA at AGT, 2'-fluoro at CU, [invAb] at 5' end, 3' end, backbone not given here; chain 2: sugars from the 5' end rrrfffffffffmfmfmmmmm, backbone not given here) | 87 | 48 | 20 | – | – |
| 25367-DC: STAT1 siNA duplex, human target site 966; modified strands SEQ ID NO: 71 and 72 (chain 1 GCUUGACAAUAAGAGAAAGTT; chain 2 CUUUCUCUUAUUGUCAAGCUU; chain 1: DNA at AGT, 2'-fluoro at CU, [invAb] at 5' end, 3' end, backbone not given here; chain 2: sugars from the 5' end rrrffffffmffmffmmmfmm, backbone not given here) | 83 | 53 | 30 | – | – |
| 25368-DC: STAT1 siNA duplex, human target site 782; modified strands SEQ ID NO: 73 and 74 (chain 1 GUAAAGUCAGAAAUGUGAATT; chain 2 UUCACAUUUCUGACUUUACUU; chain 1: DNA at AGT, 2'-fluoro at CU, [invAb] at 5' end, 3' end, backbone not given here; chain 2: sugars from the 5' end rrrmfmfffffmmffffmfmm, backbone not given here) | 80 | 54 | 20 | 0.06 | 93 |
| 25369-DC: STAT1 siNA duplex, human target site 602; modified strands SEQ ID NO: 75 and 76 (chain 1 GGAAAAGCAAGCGUAAUCUTT; chain 2 AGAUUACGCUUGCUUUUCCUU; chain 1: DNA at AGT, 2'-fluoro at CU, [invAb] at 5' end, 3' end, backbone not given here; chain 2: sugars from the 5' end rrrffmfmfffmfffffffmm, backbone not given here) | 85 | 58 | 38 | – | – |
| 25372-DC: STAT1 siNA duplex, human target site 968; modified strands SEQ ID NO: 81 and 82 (chain 1 UUGACAAUAAGAGAAAGGATT; chain 2 UCCUUUCUCUUAUUGUCAAUU; chain 1: DNA at AGT, 2'-fluoro at CU, [invAb] at 5' end, 3' end, backbone not given here; chain 2: sugars from the 5' end rrrffffffffmffmffmmmm, backbone not given here) | 76 | 54 | 29 | 0.5 | 96 |
